The source made the active and inactive calls. The calls are words filed in the database; no cut-off is given here.
Legend:
[1] = target: CDK9/cyclin T1 (Homo sapiens) (UniProt O60563+P50750); assay: Inhibition of full length human recombinant N-terminal GST-His6-tagged CDK9 (M1-F372 residues)/Cyclin T1 (M1-K726 residues) expressed in baculovirus infected sf9 cells using CDKtide as substrate at 100 uM incubated for 10 mins by scintillation counting method relative to control
[2] = target: Receptor-type tyrosine-protein kinase FLT3 (Homo sapiens) (UniProt P36888); assay: Inhibition of human recombinant N-terminal GST-His6-tagged FLT3 (R571-S993 residues) expressed in baculovirus infected sf9 cells using KVEKIGEGTYGVVYK as substrate at 100 uM incubated for 10 mins by scintillation counting method relative to control
Chain of Receptor-type tyrosine-protein kinase FLT3 (Homo sapiens) (P36888 whole entry, the tested form may be a part): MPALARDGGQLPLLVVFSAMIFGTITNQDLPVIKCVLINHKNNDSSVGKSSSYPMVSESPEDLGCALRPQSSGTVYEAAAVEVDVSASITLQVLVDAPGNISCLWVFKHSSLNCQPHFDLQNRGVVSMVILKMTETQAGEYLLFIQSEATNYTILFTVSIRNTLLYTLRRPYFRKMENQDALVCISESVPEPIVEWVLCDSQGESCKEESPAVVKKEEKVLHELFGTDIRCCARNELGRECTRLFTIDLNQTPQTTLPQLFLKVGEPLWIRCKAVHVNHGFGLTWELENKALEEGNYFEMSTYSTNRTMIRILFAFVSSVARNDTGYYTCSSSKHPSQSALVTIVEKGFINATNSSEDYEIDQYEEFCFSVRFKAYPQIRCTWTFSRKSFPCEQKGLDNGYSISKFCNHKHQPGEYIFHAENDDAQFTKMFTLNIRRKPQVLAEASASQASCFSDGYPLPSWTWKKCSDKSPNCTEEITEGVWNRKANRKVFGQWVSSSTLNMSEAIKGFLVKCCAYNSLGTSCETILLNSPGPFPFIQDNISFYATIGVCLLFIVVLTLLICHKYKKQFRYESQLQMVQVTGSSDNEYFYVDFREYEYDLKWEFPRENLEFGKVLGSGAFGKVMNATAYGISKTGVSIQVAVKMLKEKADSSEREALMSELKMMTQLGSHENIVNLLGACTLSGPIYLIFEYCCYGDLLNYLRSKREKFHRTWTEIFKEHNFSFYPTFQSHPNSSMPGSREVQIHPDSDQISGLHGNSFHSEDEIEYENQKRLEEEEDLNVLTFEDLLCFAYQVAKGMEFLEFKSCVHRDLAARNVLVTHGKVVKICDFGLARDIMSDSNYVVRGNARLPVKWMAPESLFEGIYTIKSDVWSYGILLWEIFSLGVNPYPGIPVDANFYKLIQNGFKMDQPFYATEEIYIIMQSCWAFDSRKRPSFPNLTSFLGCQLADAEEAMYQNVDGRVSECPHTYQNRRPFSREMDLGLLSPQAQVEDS

[3] = target: Leucine-rich repeat serine/threonine-protein kinase 2 (Homo sapiens) (UniProt Q5S007); assay: Inhibition of human recombinant N-terminal GST-tagged LRRK2 (968 residues) expressed in baculovirus infected sf9 cells using LRRKtide as substrate incubated for 10 mins by scintillation counting method in presence of [gamma33P]ATP
Chain of Leucine-rich repeat serine/threonine-protein kinase 2 (Homo sapiens) (Q5S007 whole entry, the tested form may be a part): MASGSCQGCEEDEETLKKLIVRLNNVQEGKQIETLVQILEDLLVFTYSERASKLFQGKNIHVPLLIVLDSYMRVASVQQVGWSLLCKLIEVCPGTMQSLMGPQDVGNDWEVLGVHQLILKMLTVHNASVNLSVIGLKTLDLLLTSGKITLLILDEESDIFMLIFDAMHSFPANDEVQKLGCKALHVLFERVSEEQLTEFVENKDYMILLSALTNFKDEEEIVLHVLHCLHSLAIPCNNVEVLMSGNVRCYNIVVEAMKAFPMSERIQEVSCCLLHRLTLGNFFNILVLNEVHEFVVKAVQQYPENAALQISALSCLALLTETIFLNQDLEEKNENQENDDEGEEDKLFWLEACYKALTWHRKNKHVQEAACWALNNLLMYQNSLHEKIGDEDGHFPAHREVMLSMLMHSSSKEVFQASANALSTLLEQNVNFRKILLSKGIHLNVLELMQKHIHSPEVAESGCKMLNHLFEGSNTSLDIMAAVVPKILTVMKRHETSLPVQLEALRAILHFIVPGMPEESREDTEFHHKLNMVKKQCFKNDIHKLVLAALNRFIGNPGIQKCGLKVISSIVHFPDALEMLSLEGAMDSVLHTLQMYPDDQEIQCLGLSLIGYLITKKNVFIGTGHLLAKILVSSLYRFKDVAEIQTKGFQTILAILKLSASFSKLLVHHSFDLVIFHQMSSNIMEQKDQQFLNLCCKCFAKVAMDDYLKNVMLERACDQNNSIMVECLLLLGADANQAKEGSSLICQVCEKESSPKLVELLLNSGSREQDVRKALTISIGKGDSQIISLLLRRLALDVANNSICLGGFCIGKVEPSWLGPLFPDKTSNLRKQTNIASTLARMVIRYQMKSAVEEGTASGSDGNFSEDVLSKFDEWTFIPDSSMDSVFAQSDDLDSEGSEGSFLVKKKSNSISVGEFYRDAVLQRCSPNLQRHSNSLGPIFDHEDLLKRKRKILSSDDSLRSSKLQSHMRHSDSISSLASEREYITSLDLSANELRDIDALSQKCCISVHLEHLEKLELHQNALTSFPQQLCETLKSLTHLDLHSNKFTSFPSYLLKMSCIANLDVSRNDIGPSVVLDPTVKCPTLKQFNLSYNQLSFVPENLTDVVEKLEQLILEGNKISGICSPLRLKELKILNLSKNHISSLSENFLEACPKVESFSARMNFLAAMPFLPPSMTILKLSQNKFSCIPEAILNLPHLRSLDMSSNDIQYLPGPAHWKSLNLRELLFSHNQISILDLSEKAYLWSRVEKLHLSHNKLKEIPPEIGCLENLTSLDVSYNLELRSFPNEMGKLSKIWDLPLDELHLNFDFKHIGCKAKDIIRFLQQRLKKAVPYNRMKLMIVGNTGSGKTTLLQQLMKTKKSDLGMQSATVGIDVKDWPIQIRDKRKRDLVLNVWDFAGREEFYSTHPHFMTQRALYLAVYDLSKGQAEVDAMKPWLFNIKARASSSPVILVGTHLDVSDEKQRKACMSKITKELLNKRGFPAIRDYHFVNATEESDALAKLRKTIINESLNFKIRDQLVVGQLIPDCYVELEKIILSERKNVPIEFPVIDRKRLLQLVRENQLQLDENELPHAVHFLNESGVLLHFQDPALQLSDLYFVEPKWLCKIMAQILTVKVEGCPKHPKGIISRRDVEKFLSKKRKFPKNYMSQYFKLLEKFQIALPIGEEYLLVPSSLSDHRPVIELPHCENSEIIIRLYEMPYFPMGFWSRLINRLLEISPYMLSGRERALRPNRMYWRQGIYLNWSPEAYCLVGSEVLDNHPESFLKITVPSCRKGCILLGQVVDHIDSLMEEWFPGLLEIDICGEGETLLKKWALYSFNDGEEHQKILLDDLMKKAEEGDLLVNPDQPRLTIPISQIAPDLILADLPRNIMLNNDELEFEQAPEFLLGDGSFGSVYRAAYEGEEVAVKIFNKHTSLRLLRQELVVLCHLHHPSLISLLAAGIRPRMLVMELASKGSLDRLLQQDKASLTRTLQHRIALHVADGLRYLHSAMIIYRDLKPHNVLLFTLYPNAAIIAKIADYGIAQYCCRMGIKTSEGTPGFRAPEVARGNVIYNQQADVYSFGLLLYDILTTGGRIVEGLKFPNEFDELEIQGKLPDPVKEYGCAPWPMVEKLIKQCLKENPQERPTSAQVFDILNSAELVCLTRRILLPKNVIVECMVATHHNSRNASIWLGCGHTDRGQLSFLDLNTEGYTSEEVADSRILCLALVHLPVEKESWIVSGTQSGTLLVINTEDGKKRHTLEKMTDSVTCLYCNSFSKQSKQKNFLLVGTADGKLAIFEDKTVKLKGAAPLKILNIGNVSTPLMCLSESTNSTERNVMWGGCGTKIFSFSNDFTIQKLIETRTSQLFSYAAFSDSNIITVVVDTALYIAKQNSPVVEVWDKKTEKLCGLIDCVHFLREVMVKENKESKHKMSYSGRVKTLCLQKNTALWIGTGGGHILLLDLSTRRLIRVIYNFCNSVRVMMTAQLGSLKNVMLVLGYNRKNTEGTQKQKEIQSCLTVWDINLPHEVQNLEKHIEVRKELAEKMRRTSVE

[4] = target: Tyrosine-protein kinase HCK (Homo sapiens) (UniProt P08631); assay: Inhibition of full length human recombinant N-terminal GST-His6-tagged HCK (M1 to P505 residues) expressed in baculovirus infected sf9 cells using KVEKIGEGTYGVVYK as substrate at 100 uM incubated for 10 mins by scintillation counting method relative to control
[5] = target: CDK9/Cyclin K (Homo sapiens) (UniProt P50750+O75909); assay: Inhibition of full length human recombinant N-terminal GST-tagged CDK9/Cyclin K expressed in baculovirus infected sf9 cells using CDKtide as substrate at 100 uM incubated for 10 mins by scintillation counting method relative to control
[6] = target: Dual specificity tyrosine-phosphorylation-regulated kinase 1A (Rattus norvegicus) (UniProt Q63470); assay: Inhibition of recombinant rat N-terminal GST-tagged DYRK1A (1 to 499 residues) expressed in Escherichia coli using KKISGRLSPIMTEQ-NH2 as substrate at 100 uM incubated for 10 mins by scintillation counting method relative to control
[7] = tested on: Leucine-rich repeat serine/threonine-protein kinase 2 (Homo sapiens), Q5S007 [G2019S]; assay: Inhibition of human recombinant GST-tagged LRRK2 G2019S mutant (970 residues) expressed in baculovirus expression system using LRRKtide as substrate at 50 uM incubated for 10 mins by scintillation counting method in presence of [gamma33P]ATP
Chain of Leucine-rich repeat serine/threonine-protein kinase 2 (Homo sapiens), Q5S007 [G2019S] (Q5S007 whole entry G2019S): as the sequence (Q5S007 whole entry, the tested form may be a part) above, with G2019S counted along it

[8] = target: Glycogen synthase kinase-3 beta (Homo sapiens) (UniProt P49841); assay: Inhibition of full length human recombinant N-terminal GST-tagged GSK3beta expressed in baculovirus infected sf9 cells using GSK3 substrate at 100 uM incubated for 10 mins by scintillation counting method relative to control
Chain of Glycogen synthase kinase-3 beta (Homo sapiens) (P49841 whole entry, looked up): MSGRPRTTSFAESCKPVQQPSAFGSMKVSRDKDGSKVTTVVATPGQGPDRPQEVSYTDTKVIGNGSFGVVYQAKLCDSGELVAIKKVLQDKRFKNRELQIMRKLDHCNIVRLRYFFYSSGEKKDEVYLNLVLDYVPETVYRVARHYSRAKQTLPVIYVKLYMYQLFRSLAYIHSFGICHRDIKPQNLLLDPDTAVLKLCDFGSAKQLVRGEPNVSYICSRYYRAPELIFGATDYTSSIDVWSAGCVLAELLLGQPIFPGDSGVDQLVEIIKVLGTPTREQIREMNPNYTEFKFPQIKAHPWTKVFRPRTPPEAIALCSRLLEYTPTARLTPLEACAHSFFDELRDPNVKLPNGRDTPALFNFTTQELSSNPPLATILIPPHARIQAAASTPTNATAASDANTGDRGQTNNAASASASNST

[9] = target: Cyclin-dependent kinase 4/cyclin D1 (Homo sapiens) (UniProt P11802+P24385); assay: Inhibition of full length human recombinant N-terminal GST-tagged CDK4/Cyclin D1 expressed in baculovirus infected sf9 cells using RB-CTF as substrate at 100 uM incubated for 10 mins by scintillation counting method relative to control
[10] = target: Leucine-rich repeat serine/threonine-protein kinase 2 (Homo sapiens) (UniProt Q5S007); assay: Inhibition of human recombinant N-terminal GST-tagged LRRK2 (968 residues) expressed in baculovirus infected sf9 cells using LRRKtide as substrate at 50 uM incubated for 10 mins by scintillation counting method in presence of [gamma33P]ATP
[11] = target: Focal adhesion kinase 1 (Homo sapiens) (UniProt Q05397); assay: Inhibition of human recombinant FAK expressed in baculovirus infected sf9 cells using KVEKIGEGTYGVVYK as substrate at 100 uM incubated for 10 mins by scintillation counting method relative to control
[12] = target: CDK6/cyclin D1 (Homo sapiens) (UniProt P24385+Q00534); assay: Inhibition of full length human recombinant N-terminal His-tagged CDK6/N-terminal GST-tagged Cyclin D1 expressed in baculovirus infected sf9 cells using RB-CTF as substrate at 100 uM incubated for 10 mins by scintillation counting method relative to control
[13] = target: T1, Leucine-rich repeat serine/threonine-protein kinase 2 (Homo sapiens, UniProt Q5S007, G2019S); assay: Mixed type inhibition of human recombinant GST-tagged LRRK2 G2019S mutant (970 residues) expressed in baculovirus expression system assessed as enzyme-substrate-inhibitor complex by Michaelis-Menten kinetics in presence of varying level of ATP
T1 sequence (Q5S007 whole entry G2019S, the tested form may be a part): as the sequence (Q5S007 whole entry, the tested form may be a part) above, with G2019S counted along it

[14] = target: CDK2/Cyclin A2 (Homo sapiens) (UniProt P24941+P20248); assay: Inhibition of full length human recombinant N-terminal GST-tagged CDK2 (M1-L298 residues)/Cyclin A2 (M1-L432 residues) expressed in baculovirus infected sf9 cells using histone H1 as substrate at 100 uM incubated for 10 mins by scintillation counting method relative to control
[15] = tested on: Leucine-rich repeat serine/threonine-protein kinase 2 (Homo sapiens), Q5S007 [G2019S]; assay: Inhibition of human recombinant GST-tagged LRRK2 G2019S mutant (970 residues) expressed in baculovirus expression system using LRRKtide as substrate incubated for 10 mins by scintillation counting method in presence of [gamma33P]ATP
[16] = Selectivity ratio of ID50 for human recombinant N-terminal GST-tagged LRRK2 (968 residues) expressed in baculovirus infected sf9 cells to ID50 for human recombinant GST-tagged LRRK2 G2019S mutant (970 residues) expressed in baculovirus expression system
[17] = target: Proto-oncogene tyrosine-protein kinase Src (Homo sapiens) (UniProt P12931); assay: Inhibition of full length human recombinant N-terminal His6-tagged SRC expressed in baculovirus infected sf21 cells using KVEKIGEGTYGVVYK as substrate at 100 uM incubated for 10 mins by scintillation counting method relative to control
Chain of Proto-oncogene tyrosine-protein kinase Src (Homo sapiens) (P12931 2-536 limits assumed): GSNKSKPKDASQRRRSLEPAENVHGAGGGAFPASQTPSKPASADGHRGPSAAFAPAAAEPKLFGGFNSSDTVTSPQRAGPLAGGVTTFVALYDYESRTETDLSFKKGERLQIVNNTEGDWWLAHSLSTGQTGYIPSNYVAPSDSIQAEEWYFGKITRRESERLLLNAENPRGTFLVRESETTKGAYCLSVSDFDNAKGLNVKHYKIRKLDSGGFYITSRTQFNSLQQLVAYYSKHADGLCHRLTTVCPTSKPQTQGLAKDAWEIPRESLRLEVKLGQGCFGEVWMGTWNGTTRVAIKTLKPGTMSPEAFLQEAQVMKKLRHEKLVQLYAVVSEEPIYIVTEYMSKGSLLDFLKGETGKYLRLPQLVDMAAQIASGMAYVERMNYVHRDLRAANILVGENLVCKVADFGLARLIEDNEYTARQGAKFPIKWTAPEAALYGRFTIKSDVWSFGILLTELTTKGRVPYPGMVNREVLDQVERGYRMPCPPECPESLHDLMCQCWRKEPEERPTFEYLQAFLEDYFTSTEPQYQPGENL

[18] = tested on: Leucine-rich repeat serine/threonine-protein kinase 2 (Homo sapiens), Q5S007 [G2019S]; assay: Ratio of enzyme-substrate-inhibitor complex Ki to enzyme-inhibitor complex Ki for human recombinant GST-tagged LRRK2 G2019S mutant (970 residues) expressed in baculovirus expression system
[19] = target: T1, Leucine-rich repeat serine/threonine-protein kinase 2; assay: Mixed type inhibition of human recombinant GST-tagged LRRK2 G2019S mutant (970 residues) expressed in baculovirus expression system assessed as enzyme-inhibitor complex by Michaelis-Menten kinetics in presence of varying level of ATP
[20] = target: Tyrosine-protein kinase ABL1 (Homo sapiens) (UniProt P00519); assay: Inhibition of human recombinant N-terminal His-tagged ABL (27 residues) expressed in baculovirus infected sf9 cells using KKGEAIYAAPFA-NH2 as substrate at 100 uM incubated for 10 mins by scintillation counting method relative to control
[21] = target: Phosphatidylinositol 4-kinase beta (Homo sapiens) (UniProt Q9UBF8); assay: Inhibition of full length human recombinant N-terminal GST-His-tagged PI4KB expressed in sf9 cells using phosphatidyl inositol:phosphatidyl serine (1:3) substrate at 100 uM by ADP-Glo kinase assay relative to control
[22] = target: Serine/threonine-protein kinase pim-1 (Homo sapiens) (UniProt P11309); assay: Inhibition of full length human recombinant N-terminal GST-tagged PIM1 expressed in Escherichia coli using S6 Kinase/Rsk2 peptide2 as substrate at 100 uM incubated for 10 mins by scintillation counting method relative to control
Chain of Serine/threonine-protein kinase pim-1 (Homo sapiens) (P11309 whole entry, looked up): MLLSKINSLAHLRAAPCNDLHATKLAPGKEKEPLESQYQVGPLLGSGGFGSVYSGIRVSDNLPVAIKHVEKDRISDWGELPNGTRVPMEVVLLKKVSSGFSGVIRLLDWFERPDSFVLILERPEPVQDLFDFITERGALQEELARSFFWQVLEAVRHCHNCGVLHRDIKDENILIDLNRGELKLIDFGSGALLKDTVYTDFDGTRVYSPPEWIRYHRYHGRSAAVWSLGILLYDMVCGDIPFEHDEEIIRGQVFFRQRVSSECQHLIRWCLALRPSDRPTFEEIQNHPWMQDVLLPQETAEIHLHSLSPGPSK

[23] = tested on: Leucine-rich repeat serine/threonine-protein kinase 2 (Homo sapiens), Q5S007 [G2019S]; assay: Inhibition of human recombinant GST-tagged LRRK2 G2019S mutant (970 residues) expressed in baculovirus expression system using LRRKtide as substrate at 100 uM incubated for 10 mins by scintillation counting method in presence of [gamma33P]ATP
[24] = target: Leucine-rich repeat serine/threonine-protein kinase 2 (Homo sapiens) (UniProt Q5S007); assay: Inhibition of human recombinant N-terminal GST-tagged LRRK2 (968 residues) expressed in baculovirus infected sf9 cells using LRRKtide as substrate at 100 uM incubated for 10 mins by scintillation counting method in presence of [gamma33P]ATP
[25] = target: T1, Leucine-rich repeat serine/threonine-protein kinase 2; assay: Competitive inhibition of human recombinant GST-tagged LRRK2 G2019S mutant (970 residues) expressed in baculovirus expression system assessed as enzyme-inhibitor complex by Michaelis-Menten kinetics in presence of varying level of ATP

C/C(=N\Nc1ccc2ccccc2n1)c1ccccc1O
inhibition [1]: 1%
inhibition [2]: 3%
ID50 [3]: 32.6 µM
inhibition [4]: 0%
inhibition [5]: 2%
inhibition [6]: 9%
inhibition [7]: Active
inhibition [8]: 1%
inhibition [9]: 7%
inhibition [10]: Active
inhibition [11]: 1%
inhibition [12]: 1%
Ki [13]: 18.4 µM
inhibition [14]: 3%
ID50 [15]: 4.8 µM
Selectivity ratio [16]: 7.5
inhibition [17]: 5%
Ratio [18]: 5
Ki [19]: 3.45 µM
inhibition [20]: 6%
inhibition [21]: 0%
inhibition [22]: 3%

COc1ccc(/C=N/Nc2nc(C)cc(C)c2C#N)cc1
inhibition [23]: Active
inhibition [24]: Active

COc1ccc(/C=N/Nc2ccccn2)cc1
inhibition [23]: Active
inhibition [24]: Active

Cc1cc(N/N=C/c2ccc(OC(=O)c3ccc(N4CCN(C)CC4)cc3)cc2)nc2ccccc12
inhibition [23]: inactive
inhibition [24]: inactive

COc1ccc(/C=N/Nc2cc(C)c3ccccc3n2)cc1
inhibition [1]: 0%
inhibition [2]: 50%
ID50 [3]: 3 µM
inhibition [4]: 0%
inhibition [5]: 53%
inhibition [6]: 0%
inhibition [7]: Active
inhibition [8]: 0%
inhibition [9]: 9%
inhibition [10]: Active
inhibition [11]: 11%
inhibition [12]: 42%
Ki [13]: 1.8 µM
inhibition [14]: 9%
ID50 [15]: 0.9 µM
Selectivity ratio [16]: 4
inhibition [17]: 31%
Ki [19]: 0.74 µM
inhibition [20]: 43%
inhibition [21]: 32%
inhibition [22]: 20%

Cc1cc(N/N=C/c2ccc(O)cc2)nc2ccccc12
inhibition [1]: 0%
inhibition [2]: 62%
ID50 [3]: 2.7 µM
inhibition [4]: 0%
inhibition [5]: 24%
inhibition [6]: 22%
inhibition [7]: Active
inhibition [8]: 0%
inhibition [9]: 16%
inhibition [10]: Active
inhibition [11]: 13%
inhibition [12]: 40%
Ki [13]: 2.59 µM
inhibition [14]: 12%
ID50 [15]: 1.3 µM
Selectivity ratio [16]: 2.4
inhibition [17]: 21%
Ratio [18]: 5
Ki [19]: 0.55 µM
inhibition [20]: 24%
inhibition [21]: 31%
inhibition [22]: 43%

COc1ccc(-c2nnc3c(NCCN4CCOCC4)cccn23)cc1OC
inhibition [1]: 24%
inhibition [23]: Active
Ki [25]: 5.61 µM
inhibition [2]: 0%
ID50 [3]: 32 µM
inhibition [4]: 0%
inhibition [5]: 38%
inhibition [6]: 26%
inhibition [8]: 14%
inhibition [9]: 10%
inhibition [11]: 8%
inhibition [12]: 18%
inhibition [14]: 22%
ID50 [15]: 9.1 µM
Selectivity ratio [16]: 3.5
inhibition [17]: 40%
inhibition [24]: Active
inhibition [20]: 19%
inhibition [21]: 3%
inhibition [22]: 29%

COc1ccc(/C=N/Nc2nc3c(c(-c4ccccc4)c2C#N)CCCC3)cc1
inhibition [23]: Active
inhibition [24]: Active

COc1ccc(/C=N/Nc2ncccc2Cl)cc1OC
inhibition [23]: Active
inhibition [24]: Active

— ChEMBL document CHEMBL3797082, “A multicomponent pharmacophore fragment-decoration approach to identify selective LRRK2-targeting probes” (Medchemcomm, 2016)
